Results from ChEMBL document CHEMBL5247626, “In vitro and in vivo biological evaluation of newly synthesized multi-target 20(R)-panaxadiol derivatives for treating Alzheimer's disease” (Eur J Med Chem, 2022).
The source made the active and inactive calls. The rule behind the calls is not given here.

Columns and labels:
[1] = Clearance in Sprague-Dawley rat at 10 mg/kg,iv measured at 0.083 to 24 hrs post administration by LC-MS/MS analysis; format: ADME, organism-based; conditions: in vivo, time 0.083-24 hrs
[2] = Half life in Sprague-Dawley rat at 60 mg/kg,po measured at 0.25 to 24 hrs post administration by LC-MS/MS analysis; format: ADME, organism-based; conditions: in vivo, time 0.25-24 hrs
[3] = Volume of distribution of steady state in Sprague-Dawley rat at 10 mg/kg,iv measured at 0.083 to 24 hrs post administration by LC-MS/MS analysis; format: ADME, organism-based; conditions: in vivo, time 0.083-24 hrs, read-out: Vdss
PC-12 [4] = assay: Cytotoxicity against rat PC12 cells assessed as effect on survival at < 60 uM incubated for 24 hrs by MTT assay; format: toxicity, cell-based; conditions: pc-12, 24 h
N2a [5] = assay: Cytotoxicity against mouse Neuro2a cells assessed as effect on survival at < 60 uM incubated for 24 hrs by MTT assay; format: toxicity, cell-based
N2a [6] = assay: Cytotoxicity against mouse Neuro2a cells assessed as decrease in cell viability at 120 uM incubated for 24 hrs by MTT assay; format: toxicity, cell-based
HepG2 = assay: Cytotoxicity against human HepG2 cells assessed as decrease in cell viability at 120 uM incubated for 24 hrs by MTT assay; format: toxicity, cell-based; conditions: hepg2, 24 h
HUVEC = assay: Cytotoxicity against human HUVEC cells assessed as decrease in cell viability at 120 uM incubated for 24 hrs by MTT assay; format: toxicity, cell-based
[7] = Cytotoxicity against human HUVEC cells assessed as cell viability at 120 uM incubated for 24 hrs by MTT assay; format: toxicity, cell-based; conditions: read-out: Activity
PC-12 [8] = assay: Neuroprotective activity against rat PC12 cells assessed as reduction in amyloid beta (25 to 35)-induced cytotoxicity incubated for 4 hrs followed by amyloid beta (25 to 35) treatment for 24 hrs by MTT assay; format: functional, cell-based
PC-12 [9] = assay: Neuroprotective activity against amyloid beta (25 to 35)-induced rat PC12 cells assessed as reduction in amyloid beta (25 to 35)-induced apoptosis rate at 7.5 uM incubated for 15 mins by Annexin V-FITC/PI staining based flow cytometric analysis (reference value: 2.9%); format: functional; set-up: scale not given: the % may be the effect or the level left; conditions: 0.25 h
PC-12 [10] = assay: Neuroprotective activity against amyloid beta (25 to 35)-induced rat PC12 cells assessed as decrease in amyloid beta level at 3.75 to 30 uM incubated for 30 mins followed by amyloid beta (25 to 35) addition and measured after 24 hrs by ELISA; format: functional, cell-based; conditions: dose 3.75-30 µM, time 24.5 hrs
[11] = biological target: Amyloid-beta precursor protein (Homo sapiens) (UniProt P05067); assay: Disaggregation of amyloid beta (25 to 35) (unknown origin) self aggregation at 15 uM incubated for 24 hrs by transmission electron microscopy analysis
PC-12 [12] = assay: Neuroprotective activity against amyloid beta (25 to 35)-induced rat PC12 cells assessed as decrease in p38 phosphorylation level at 7.5 to 30 uM preincubated for 30 mins followed by amyloid beta (25 to 35) addition and measured after 24 hrs by western blot assay; format: functional, cell-based; conditions: dose 7.5-30 µM, time 24.5 hrs
PC-12 [13] = assay: Neuroprotective activity against amyloid beta (25 to 35)-induced rat PC12 cells assessed as decrease in JNK expression level at 7.5 to 30 uM preincubated for 30 mins followed by amyloid beta (25 to 35) addition and measured after 24 hrs by western blot assay; format: functional, cell-based; conditions: dose 7.5-30 µM, time 24.5 hrs
PC-12 [14] = assay: Neuroprotective activity against amyloid beta (25 to 35)-induced rat PC12 cells assessed as decrease in NF-kappaB expression level at 7.5 to 30 uM preincubated for 30 mins followed by amyloid beta (25 to 35) addition and measured after 24 hrs by western blot assay; format: functional, cell-based; conditions: dose 7.5-30 µM, time 24.5 hrs
Mus musculus [15] = assay: Antialzheimer activity against amyloid beta (25 to 35)-induced cognitive deficit ICR mouse model assessed as effect on total number of arm enteries at 12.5 to 50 mg/kg,po observed after 11 days of administration by Y maze test; format: functional, organism-based; conditions: dose 12.5-50 mg/kg, time 11.0 day
Mus musculus [16] = assay: Antialzheimer activity against amyloid beta (25 to 35)-induced cognitive deficit ICR mouse model assessed as attenuation of behavioral deficit at 50 mg/kg,po observed after 12 to 15 days of administration by Y maze test; format: functional, organism-based; conditions: time 12-15 day
Mus musculus [17] = assay: Antialzheimer activity against amyloid beta (25 to 35)-induced cognitive deficit ICR mouse model assessed as increase in discrimination index at 50 mg/kg,po observed after 1 hr of administration by novel object recognition test; format: functional, organism-based
Mus musculus [18] = assay: Antialzheimer activity against amyloid beta (25 to 35)-induced cognitive deficit ICR mouse model assessed as increase in preferential index at 50 mg/kg,po observed after 1 hr of administration by novel object recognition test; format: functional, organism-based
Mus musculus [19] = assay: Antialzheimer activity against amyloid beta (25 to 35)-induced cognitive deficit ICR mouse model assessed as increase in discrimination index at 25 mg/kg,po observed after 24 hrs of administration by novel object recognition test; format: functional, organism-based
Mus musculus [20] = assay: Antialzheimer activity against amyloid beta (25 to 35)-induced cognitive deficit ICR mouse model assessed as increase in discrimination index at 50 mg/kg,po observed after 24 hrs of administration by novel object recognition test; format: functional, organism-based
Mus musculus [21] = assay: Antialzheimer activity against amyloid beta (25 to 35)-induced spatial memory deficit ICR mouse model assessed as increase in exploration time spent at 50 mg/kg,po observed at 16 to 20 days of administration by morris water maze test; format: functional, organism-based; conditions: time 16-20 day
Mus musculus [22] = assay: Antialzheimer activity against amyloid beta (25 to 35)-induced spatial memory deficit ICR mouse model assessed as increase in distance travelled in target quadrant at 50 mg/kg,po observed at 16 to 20 days of administration by morris water maze test; format: functional, organism-based; conditions: time 16-20 day
Mus musculus [23] = assay: Antialzheimer activity against amyloid beta (25 to 35)-induced brain injury ICR mouse model assessed as attenuation of pathological change in hippocampal CAl region at 12.5 to 50 mg/kg,po administrated for 21 days by hematoxylin and eosin staining based microscopic analysis; format: functional, organism-based; conditions: dose 12.5-50 mg/kg, time 21.0 day
Mus musculus [24] = assay: Antialzheimer activity against amyloid beta (25 to 35)-induced brain injury ICR mouse model assessed as increase in NeuN expression level in hippocampal CA1 region at 50 mg/kg,po administrated for 21 days by immunohistochemistry analysis; format: functional, organism-based; conditions: time 21.0 day
Mus musculus [25] = assay: Antialzheimer activity against amyloid beta (25 to 35)-induced brain injury ICR mouse model assessed as increase in NeuN expression level in hippocampal CA3 region at 50 mg/kg,po administrated for 21 days by immunohistochemistry analysis; format: functional, organism-based; conditions: time 21.0 day
Mus musculus [26] = assay: Antialzheimer activity against amyloid beta (25 to 35)-induced brain injury ICR mouse model assessed as increase in NeuN expression level in cerebral cortex at 50 mg/kg,po administrated for 21 days by immunohistochemistry analysis; format: functional, organism-based; conditions: time 21.0 day
[27] = Toxicity in ICR mouse assessed as pathological changes in spleen at 12.5 to 50 mg/kg,po administrated for 20 days by hematoxylin and eosin staining based microscopic analysis; format: organism-based; conditions: in vivo, 480 h, dose 12.5-50 mg/kg, time 20 day
[28] = Toxicity in ICR mouse assessed as pathological changes in kidney at 12.5 to 50 mg/kg,po administrated for 20 days by hematoxylin and eosin staining based microscopic analysis; format: organism-based; conditions: in vivo, 480 h, dose 12.5-50 mg/kg, time 20 day

Sequence of Amyloid-beta precursor protein (Homo sapiens) (P05067 whole entry): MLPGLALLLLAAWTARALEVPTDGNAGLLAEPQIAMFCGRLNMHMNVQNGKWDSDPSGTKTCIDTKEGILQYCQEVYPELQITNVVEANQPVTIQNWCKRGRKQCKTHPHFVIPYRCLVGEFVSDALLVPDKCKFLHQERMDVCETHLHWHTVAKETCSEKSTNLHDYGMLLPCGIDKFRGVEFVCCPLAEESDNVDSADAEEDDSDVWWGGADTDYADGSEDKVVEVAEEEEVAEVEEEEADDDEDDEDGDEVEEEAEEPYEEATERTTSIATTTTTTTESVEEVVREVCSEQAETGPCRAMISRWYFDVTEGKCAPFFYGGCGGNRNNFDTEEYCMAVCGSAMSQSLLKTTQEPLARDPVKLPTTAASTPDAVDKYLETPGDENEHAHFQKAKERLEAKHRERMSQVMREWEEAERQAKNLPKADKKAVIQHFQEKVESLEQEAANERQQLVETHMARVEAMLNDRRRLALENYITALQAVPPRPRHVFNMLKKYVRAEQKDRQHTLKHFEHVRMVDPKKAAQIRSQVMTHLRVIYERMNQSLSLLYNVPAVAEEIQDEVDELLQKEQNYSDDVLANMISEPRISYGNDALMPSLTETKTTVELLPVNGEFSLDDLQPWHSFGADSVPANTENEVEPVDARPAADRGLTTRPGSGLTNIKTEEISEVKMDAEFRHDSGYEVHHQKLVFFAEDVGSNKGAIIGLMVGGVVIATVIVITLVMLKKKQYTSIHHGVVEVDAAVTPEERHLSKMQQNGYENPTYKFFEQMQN

**Q.** For `CC1(C)CCC[C@](C)([C@H]2CC[C@]3(C)[C@@H]2[C@H](O)C[C@@H]2[C@@]4(C)CC[C@H](OC(=O)NCc5ccccc5)C(C)(C)[C@@H]4CC[C@]23C)O1`, which clearance [1] is on record?
**A.** 4.29 mL/min/kg

**Q.** And the half-life [2]?
**A.** 49 min

**Q.** And the Vd [3]?
**A.** 0.133 L/kg

**Q.** And the Activity (PC-12 [4])?
**A.** Non-Toxic

**Q.** What about the Activity (N2a [5]) of the same compound?
**A.** Non-Toxic

**Q.** What about the Activity (N2a [6]) of the same compound?
**A.** Toxic

**Q.** And the Activity (HepG2)?
**A.** Toxic

**Q.** What about the Activity (HUVEC) of the same compound?
**A.** Toxic

**Q.** What about the viability at 24 h, 120 µM [7] of the same compound?
**A.** > 50%

**Q.** What about the EC50 (PC-12 [8]) of the same compound?
**A.** 13.2 µM

**Q.** What about the Activity (PC-12 [9]) of the same compound?
**A.** 14.1%

**Q.** And the Activity (PC-12 [10])?
**A.** Active

**Q.** And the Activity [11]?
**A.** Active

**Q.** What about the Activity (PC-12 [12]) of the same compound?
**A.** Active

**Q.** And the Activity (PC-12 [13])?
**A.** Active

**Q.** And the Activity (PC-12 [14])?
**A.** Active

**Q.** And the Activity (Mus musculus [15])?
**A.** inactive

**Q.** What about the Activity (Mus musculus [16]) of the same compound?
**A.** Active

**Q.** What about the Activity (Mus musculus [17]) of the same compound?
**A.** inactive

**Q.** And the Activity (Mus musculus [18])?
**A.** inactive

**Q.** And the Activity (Mus musculus [19])?
**A.** Active

**Q.** What about the Activity (Mus musculus [20]) of the same compound?
**A.** Active

**Q.** What about the Activity (Mus musculus [21]) of the same compound?
**A.** Active

**Q.** And the Activity (Mus musculus [22])?
**A.** Active

**Q.** And the Activity (Mus musculus [23])?
**A.** Active

**Q.** What about the Activity (Mus musculus [24]) of the same compound?
**A.** Active

**Q.** What about the Activity (Mus musculus [25]) of the same compound?
**A.** Active

**Q.** What about the Activity (Mus musculus [26]) of the same compound?
**A.** Active

**Q.** And the Activity [27]?
**A.** Non-Toxic

**Q.** What about the Activity [28] of the same compound?
**A.** Non-Toxic
